PMC9458065, “Discovery of Quinacrine as a Potent Topo II and Hsp90 Dual-Target Inhibitor, Repurposing for Cancer Therapy” (Molecules, 2022)
Where a name gives a salt, the structure may show the parent alone.

Columns and labels:
[1] = system: HL60 (HL−60 human leukemia cell); assay: cells; parameters: MTT cell proliferation assay, OD 570 nm, IC50 from triplicate dose-response; conditions: MTT, 48 h
Procedure: The cell proliferation assay was evaluated using the MTT assay as described by Mosmann, with modifications. Cells were seeded into 96−well plates (5 × 10^3 cells/well) and exposed to various concentrations of compounds. After 48 h of treatment, 20 μL of 2.5 mg/mL MTT reagent was added to each well, and the cells were further incubated for 4 h at 37 ℃. The cells in each well were then treated with 100 μL of dimethyl sulfoxide (DMSO), and the optical density (OD) was recorded at 570 nm using a microplate reader (Bio−Tek). All experiments were performed in parallel three times, and the IC50 values were derived from the mean OD values of triplicate tests versus the drug concentration curves. […] HL−60 human leukemia cell is sensitive to Topo II inhibitors, which are commonly used to evaluate the inhibitory effect of Topo II inhibitors on proliferation.

[2] = biological target: T1, Hsp90α (Homo sapiens, UniProt P07900); assay: malachite green ATPase assay; format: biochemical; conditions: read-out: % inhibition at 100 μM
T1 construct: gene HSP90AA1

[3] = biological target: T2, human Topo IIα (Homo sapiens, UniProt P11388); assay: pBR322 DNA relaxation, agarose gel; format: biochemical
T2 construct: gene TOP2A; full-length enzyme of a commercial relaxation kit (Inspiralis)

[4] = biological target: T3, hTopo IIα ATPase (Homo sapiens, UniProt P11388); assay: malachite green ATPase assay; format: biochemical; conditions: 100 µM; […] ATP, […] MgCl2, pH […] °C, […] min; relative inhibition rate, not absolute inhibition
T3 construct: gene TOP2A; ATPase region, residues 29-428 (400 residues), N-terminal 6xHis, pET28a, E. coli BL21 (DE3)
Description: malachite green ATPase assay on hTopo IIα ATPase

[5] = biological target: T4, Hsp90α N−ATPase (9−236) (Homo sapiens, UniProt P07900); assay: fluorescence polarization displacement of GM-FITC
T4 construct: gene HSP90AA1

T3 sequence (P11388 29-428): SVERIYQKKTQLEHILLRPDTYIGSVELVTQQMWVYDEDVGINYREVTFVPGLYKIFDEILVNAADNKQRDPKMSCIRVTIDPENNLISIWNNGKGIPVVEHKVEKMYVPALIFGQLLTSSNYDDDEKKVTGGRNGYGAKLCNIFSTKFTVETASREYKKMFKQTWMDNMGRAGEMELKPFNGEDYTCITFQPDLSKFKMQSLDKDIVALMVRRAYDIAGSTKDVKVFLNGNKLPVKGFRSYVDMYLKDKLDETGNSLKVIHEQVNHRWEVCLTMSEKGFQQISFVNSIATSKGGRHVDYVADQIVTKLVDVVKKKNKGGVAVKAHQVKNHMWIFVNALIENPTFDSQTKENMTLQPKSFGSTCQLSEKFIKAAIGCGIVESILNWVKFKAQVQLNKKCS
T2 sequence (P11388 whole entry): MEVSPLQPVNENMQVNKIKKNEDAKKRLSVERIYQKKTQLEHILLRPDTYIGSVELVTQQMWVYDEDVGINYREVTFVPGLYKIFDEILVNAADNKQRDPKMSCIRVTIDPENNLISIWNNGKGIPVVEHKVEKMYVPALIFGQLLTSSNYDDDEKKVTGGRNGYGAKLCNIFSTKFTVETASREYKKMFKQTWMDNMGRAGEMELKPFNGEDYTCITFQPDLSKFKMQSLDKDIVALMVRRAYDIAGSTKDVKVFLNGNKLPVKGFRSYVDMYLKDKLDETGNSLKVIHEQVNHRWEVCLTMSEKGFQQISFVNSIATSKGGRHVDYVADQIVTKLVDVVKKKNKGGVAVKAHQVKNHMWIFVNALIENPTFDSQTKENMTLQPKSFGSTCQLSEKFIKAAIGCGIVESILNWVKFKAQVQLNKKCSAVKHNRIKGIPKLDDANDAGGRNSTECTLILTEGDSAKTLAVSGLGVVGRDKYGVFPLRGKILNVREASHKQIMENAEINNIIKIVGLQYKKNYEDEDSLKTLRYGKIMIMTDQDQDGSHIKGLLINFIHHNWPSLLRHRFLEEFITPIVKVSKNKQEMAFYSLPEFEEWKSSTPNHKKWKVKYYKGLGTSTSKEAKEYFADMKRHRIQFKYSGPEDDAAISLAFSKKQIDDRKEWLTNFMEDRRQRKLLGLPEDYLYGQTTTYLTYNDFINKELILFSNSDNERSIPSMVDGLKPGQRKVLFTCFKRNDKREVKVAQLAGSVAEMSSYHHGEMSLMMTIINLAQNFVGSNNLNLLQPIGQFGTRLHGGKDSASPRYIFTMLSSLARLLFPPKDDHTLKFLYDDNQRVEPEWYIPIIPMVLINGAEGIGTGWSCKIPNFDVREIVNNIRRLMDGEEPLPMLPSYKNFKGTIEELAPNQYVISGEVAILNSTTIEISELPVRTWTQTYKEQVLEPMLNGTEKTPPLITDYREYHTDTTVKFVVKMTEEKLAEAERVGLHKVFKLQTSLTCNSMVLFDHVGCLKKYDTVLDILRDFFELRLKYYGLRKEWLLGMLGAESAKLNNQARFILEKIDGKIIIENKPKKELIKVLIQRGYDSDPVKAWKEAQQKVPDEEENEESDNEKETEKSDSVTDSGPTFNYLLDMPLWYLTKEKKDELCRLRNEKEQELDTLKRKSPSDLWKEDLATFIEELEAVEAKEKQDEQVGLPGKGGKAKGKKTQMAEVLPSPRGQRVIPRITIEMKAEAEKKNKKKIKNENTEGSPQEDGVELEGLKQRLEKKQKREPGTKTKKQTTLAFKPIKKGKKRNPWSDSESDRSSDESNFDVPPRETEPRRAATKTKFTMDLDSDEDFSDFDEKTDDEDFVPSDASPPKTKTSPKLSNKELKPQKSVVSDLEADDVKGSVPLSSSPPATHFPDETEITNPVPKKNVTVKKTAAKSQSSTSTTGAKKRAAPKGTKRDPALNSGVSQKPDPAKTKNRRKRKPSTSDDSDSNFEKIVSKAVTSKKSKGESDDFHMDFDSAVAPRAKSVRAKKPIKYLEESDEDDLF

IC50 [1]	SMILES	also measured
9.43 µM	O=C1C(O)=C([C@H]2CC[C@H](c3ccc(Cl)cc3)CC2)C(=O)c2ccccc21 [2−G7, Atovaquone]	–
8.02 µM	CC(=O)Nc1ccc(CC(=O)O)cc1 [3−H6, Actarit]	–
> 25 µM	Nc1ccc(C(=O)O)c(O)c1 [5−E4, 4−aminosalicylic acid]	–
> 25 µM	Nc1ccc(O)c(C(=O)O)c1 [5−E5, 5−aminosalicylic acid]	–
19.7 µM	COc1cc2nc(N3CCN(C(=O)C4COc5ccccc5O4)CC3)nc(N)c2cc1OC (centres unmarked) [6−B10, Doxazosin mesylate]	–
5.22 µM	CCN(CC)CCCC(C)Nc1c2ccc(Cl)cc2nc2ccc(OC)cc12 (centres unmarked) [7−F2, quinacrine]	inhibition at 100 µM [2]: ~70%; IC50 [3]: 6.18 µM; Topo II ATPase RIR (%) * [4]: 42.3%; IC50 [5]: 13.6 µM
> 25 µM	COc1ncnc(NS(=O)(=O)c2ccc(N)cc2)c1OC [7−H4, Sulfadoxine]	–
> 25 µM	Nc1ccc(S(=O)(=O)Nc2ncccn2)cc1 [7−H5, Sulfadiazine]	–
> 25 µM	COc1cc(NS(=O)(=O)c2ccc(N)cc2)nc(OC)n1 [7−H6, Sulfadimethoxine]	–
> 25 µM	O=C(O)c1cc(/N=N/c2ccc(S(=O)(=O)Nc3ccccn3)cc2)ccc1O [7−H7, Sulfasalazine]	–
> 25 µM	CCOc1ccccc1OCCN[C@H](C)Cc1ccc(OC)c(S(N)(=O)=O)c1 [7−H8, Tamsulosin HCl]	–
> 25 µM	CN1C(C(=O)Nc2ccccn2)=C(O)c2sccc2S1(=O)=O [7−H10, Tenoxicam]	–
> 25 µM	COc1cc2nc(N3CCN(C(=O)C4CCCO4)CC3)nc(N)c2cc1OC (centres unmarked) [7−H11, Terazosin HCl]	–
12.1 µM	Oc1cc(O)cc(/C=C/c2ccc(O)c(O)c2)c1 [K−C11, Piceatannol]	Topo II ATPase RIR (%) * [4]: 70.5%
9.51 µM	CN(C)CCCn1cc(C2=C(c3c[nH]c4ccccc34)C(=O)NC2=O)c2ccccc21 [K−D7, GF 109203X]	–
1.18 µM	Cn1cc(C2=C(c3cn(CCCSC(=N)N)c4ccccc34)C(=O)NC2=O)c2ccccc21 [K−D9, Ro 31−8220]	Topo II ATPase RIR (%) * [4]: 99.7%
3.02 µM	O=c1c(-c2ccc(O)cc2)coc2cc(O)ccc12 [K−F12, Daidzein]	Topo II ATPase RIR (%) * [4]: 101.2%

More lines, now with the values behind:

SMILES	IC50 [1]	also measured
N=C(N)NC(=O)Cc1c(Cl)cccc1Cl [2−H11, Guanfacine HCl]	> 25 µM	–
CC[N+](CC)(CC)CCOc1cccc(OCC[N+](CC)(CC)CC)c1OCC[N+](CC)(CC)CC [3−C11, Gallamine triethiodide]	> 25 µM	–
CN1CCN(CCCN2c3ccccc3Sc3ccc(C(F)(F)F)cc32)CC1 [3−E6, Trifluoperazine 2HCl]	> 25 µM	–
O=C(c1ccc(OCCN2CCCCC2)cc1)c1c(-c2ccc(O)cc2)sc2cc(O)ccc12 [4−C3, Raloxifene HCl]	7.2 µM	–
CC1(C)S[C@@H]2[C@H](NC(=O)[C@H](N)c3ccccc3)C(=O)N2[C@H]1C(=O)O [5−E6, Ampicillin trihydrate]	> 25 µM	–
COc1ccc(C[C@@H]2c3cc(OC)c(OC)cc3CC[N@+]2(C)CCC(=O)OCCCCCOC(=O)CC[N@@+]2(C)CCc3cc(OC)c(OC)cc3[C@H]2Cc2ccc(OC)c(OC)c2)cc1OC [5−E11, Atracurium besylate]	22.9 µM	–
CN[C@@H]1[C@H](O[C@H]2[C@H](O[C@H]3[C@H](O)[C@@H](O)[C@H](N=C(N)N)[C@@H](O)[C@@H]3N=C(N)N)O[C@@H](C)[C@]2(O)C=O)O[C@@H](CO)[C@H](O)[C@H]1O [7−H3, Streptomycin sulfate]	> 25 µM	–
CCCc1nc2c(C)cc(-c3nc4ccccc4n3C)cc2n1Cc1ccc(-c2ccccc2C(=O)O)cc1 [7−H9, Telmisartan]	> 25 µM	Topo II ATPase RIR (%) * [4]: 79.4%
N[C@@H](Cc1cc(I)c(Oc2cc(I)c(O)c(I)c2)c(I)c1)C(=O)O [8−H9, L−thyroxine]	> 25 µM	–
CN[C@@H]1C[C@H]2O[C@@](C)([C@@H]1OC)n1c3ccccc3c3c4c(c5c6ccccc6n2c5c31)C(=O)NC4 [K−B6, Staurosporine]	–	Topo II ATPase RIR (%) * [4]: 111.2%
N#C/C(=C\c1ccc(O)c(O)c1)C(N)=S [K−C2, Tyrphostin 47]	> 25 µM	Topo II ATPase RIR (%) * [4]: 90.3%
N#CC(C#N)=C(N)/C(C#N)=C/c1cc(O)c(O)c(O)c1 [K−C3, Tyrphostin 51]	> 25 µM	Topo II ATPase RIR (%) * [4]: 85.8%
CO[C@@H]1[C@H](N(C)C(=O)c2ccccc2)C[C@H]2O[C@]1(C)n1c3ccccc3c3c4c(c5c6ccccc6n2c5c31)C(=O)NC4 [K−C10, PKC−412]	0.75 µM	–
N#C/C(=C\c1ccc(O)c(O)c1)C(=O)NCc1ccccc1 [K−D1, AG−490]	19 µM	Topo II ATPase RIR (%) * [4]: 61.6%
COC[C@H]1OC(=O)c2coc3c2[C@@]1(C)C1=C(C3=O)[C@@H]2CCC(=O)[C@@]2(C)C[C@H]1OC(C)=O [K−D6, Wortmannin]	13.3 µM	–
Cc1cc(O)c2c(=O)c3c(O)cc(O)c4c5c(O)cc(O)c6c(=O)c7c(O)cc(C)c8c1c2c(c34)c(c78)c65 [K−D8, Hypericin]	> 25 µM	–
CCCCCCCCCCCCC/C=C/[C@@H](O)[C@@H](N)CO [K−D10, Sphingosine]	11.1 µM	Topo II ATPase RIR (%) * [4]: 94.3%
COc1cc([C@@H]2c3cc4c(cc3[C@@H](O[C@@H]3O[C@@H]5CO[C@@H](C)O[C@H]5[C@H](O)[C@H]3O)[C@H]3COC(=O)[C@H]23)OCO4)cc(OC)c1O [VP−16]	0.17 µM	–
